The record followed here is the METLIN SMRT retention time set (Domingo-Almenara et al. 2019).

The nature of this data set: gradient 5% acetonitrile 3 min, to 50% in 2 min, to 85% in 15 min, held 3 min, 100 µL/min. To be noted: column: Zorbax Extend-C18 2.1 x 50 mm; eluents: water / acetonitrile, 0.1% formic acid. Put shortly:
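Retention times come from adduct peaks that were picked computationally and then checked by hand. The standards, pure and pooled in mixtures of ~100 molecules, were run on a Zorbax Extend-C18 column (2.1 × 50 mm, 1.8 μm) at 100 μL/min with water and acetonitrile, each with 0.1% formic acid. Detection was by quadrupole time-of-flight mass spectrometry in positive and negative ionization mode, with a dead volume of 40 μL and a dwell volume of 900 μL.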
Consider `O=C(NCCn1nc(-c2ccco2)ccc1=O)C1CN(c2nc3c(F)cccc3s2)C1`, for which the RP-LC retention time turned out to be 680 s. The value for `Cc1cccc(NC(=O)Cn2nc(N3CCCC3)c3ccccc3c2=O)c1` was 960 s; that for `CCc1nnc([C@@H]2CC(F)(F)CN2C(=O)COc2ccc(F)cc2)o1` was 800 s. `CCOC(=O)c1c(C)c(CCC(=O)NCc2ccc3c(c2)OCO3)c(C)n1C` displayed an RP-LC retention time of 865 s. The value for `Cc1cc(NC(=O)C2=COCCO2)no1` was 600 s.

Consider `Cc1ccc(CN2C[C@]34C=C[C@H](O3)[C@@H](C(=O)NCc3ccccc3)[C@H]4C2=O)cc1`, for which the RP-LC retention time is 822 s.

In turn, `O=C(NCc1ccco1)Nc1ccc2c(c1)N(C(=O)c1ccccc1)CC2` showed an RP-LC retention time of 756 s. The value for `COc1ccccc1NC(=O)Cn1c(C)cc(-c2nnc(-c3ccccc3)o2)c1C` was 988 s; that for `O=C(NCCN1CCN(C(=O)NCCCc2ccccc2)CC1)c1ccc2c(c1)OCO2` was 581 s. For `CCN(c1cccc(C)c1)S(=O)(=O)c1cc(-c2[nH]ncc2C(=O)N2CCCC2)oc1C` the value was 819 s; for `CN(CC1(C)CCOCC1)S(=O)(=O)c1ccc(Cl)s1`, 976 s. With `CC(C)n1c(=O)sc2cc(S(=O)(=O)N3CCC(C(=O)N4CCc5ccccc5C4)CC3)ccc21`, the RP-LC retention time worked out at 1000 s.

Turning to `CCN(CC)C(=O)Cn1cc(C(=O)C(=O)N2CCc3ccccc3C2)c2ccccc21`, the RP-LC retention time amounted to 644 s. On to `Cc1ccc(Nc2nc(C)cc(N3CCN(S(=O)(=O)c4cc(C(C)C)ccc4C)CC3)n2)cc1`, for which the RP-LC retention time stood at 950 s. The value for `CCn1cc(-c2nc(CC(=O)NCc3ccccc3)cs2)c2cccnc21` was 840 s; that for `CCc1noc(NC(C)=O)c1-c1ccc(C)c(S(=O)(=O)Nc2cccc(Cl)c2)c1` was 867 s.

As to `CCn1cnc(S(=O)(=O)N2CCC(C(=O)NCc3ccccn3)CC2)c1`, the RP-LC retention time was determined as 540 s. The value for `CCCCOc1ccc(C(=O)N2CCN(c3nc4ccncc4n(C)c3=O)CC2)cc1` was 702 s; that for `O=C(CN1C[C@H]2C[C@H](C1)[C@H]1CCCC(=O)N1C2)Nc1ccc2c(c1)OCCO2` was 587 s. For `CCc1nnc2nc(N3CCN(C(=O)COc4ccc(OC)cc4)CC3)cc(C)n12` the value was 613 s. For `O=C(CCC(=O)N1CC2CCCN2c2ccccc21)NCc1ccco1` (centres undefined) the value was 1090 s; for `CN1C(=O)C(CC(=O)Nc2ccccc2)=C2CCCCC21` (centres undefined), 758 s; for `CN1CCN(C(=O)C(=O)Nc2c3c(nn2-c2cccc(Cl)c2)CSC3)CC1`, 571 s.

Regarding `CCn1cc(CN2CCn3c(nnc3[C@@H]3C[C@@H](O)CN3Cc3cccnc3)C2)c(C)n1`, the RP-LC retention time was 513 s. The value for `COC(=O)c1c(NCCCN2CCCC2)c2cccc(Cl)c2[nH]c1=O` was 550 s. The compound `Cc1nc(Nc2ccc(F)cn2)sc1C(=O)N1CCN(c2ccccc2)CC1` returned an RP-LC retention time of 875 s. `Cc1cc(F)ccc1NC(=O)C1(C)Oc2cccnc2NC1=O` (centres undefined) displayed an RP-LC retention time of 687 s. For `O=C(NCc1nc2ccccc2[nH]1)c1coc(NC(=O)c2cccs2)n1` the value was 556 s; for `CCCCn1nc2ccc(S(=O)(=O)N3CCOCC3)cn2c1=O`, 739 s. For `COc1ccc(C2CC(=O)N(CC(=O)NCC3CCCO3)c3ccccc3S2)cc1` (centres undefined) the value was 826 s. The value for `O=C(Nc1ccc2c(c1)OCO2)N1CCC(N2CCN(Cc3ccccc3)C2=O)CC1` was 787 s.

As for `COc1ccc(-c2nc(CN3C(=O)C(O)(c4cccc(F)c4)c4ccccc43)c(C)o2)cc1` (centres undefined), the RP-LC retention time is 1040 s. In the case of `CSc1ccc(CNC(=O)C2CCN(c3cnc4nccnc4c3)CC2)cc1`, the RP-LC retention time turned out to be 702 s.

The compound `COc1cccc(S(=O)(=O)N2CCc3c(c(-c4nnc(-c5ccccc5)o4)nn3C)C2)c1` displayed an RP-LC retention time of 933 s.

`COc1ccc(C(=O)NCc2ccc3c(c2)OCO3)nn1` gave an RP-LC retention time of 654 s. The value for `Cc1cc(N2CCCC2)n2nc(CN3CCN(c4ccccc4C)CC3)nc2n1` was 1210 s; that for `COc1cc(NC(=O)Cn2nc(N3CCCC3)c3ccccc3c2=O)cc(OC)c1` was 918 s; that for `CC(=O)N1CCC(n2c(C)nc(C(=O)Nc3ccc4c(c3)OCO4)c2C)CC1` was 603 s. The compound `CCCN(CC1CC1)C(=O)[C@@H]1COCC(=O)N1Cc1ccccc1` registered an RP-LC retention time of 818 s.

Compound `CCn1cnc(S(=O)(=O)N2CCCC(C(=O)Nc3ccc(F)c(Cl)c3)C2)c1` (centres undefined) had an RP-LC retention time of 830 s.

`CN(C)[C@@H]1CN(C(=O)c2cc(Cl)ccc2F)C[C@H]1CO` displayed an RP-LC retention time of 571 s. In turn, `CCc1ccc(NC(=O)NCCc2cn(CC(C)C)c3ncccc23)cc1` yielded an RP-LC retention time of 919 s. The value for `Cc1ccc(NC(=O)N2C[C@@H](F)C[C@H]2C(=O)N2CCCCC2)c(C)c1` was 732 s; that for `Cc1cccc(CNC(=O)c2ccc3c(c2)nc2n3CCN(C3CCCCC3)C2=O)c1` was 824 s; that for `CCCN(CC1CCOC1)C(=O)Nc1ccc2c(c1)OCCO2` (centres undefined) was 732 s. For `COc1ccc(OC)c(CNC(=O)c2cnc(OC)nc2)c1` the value was 700 s. For the compound `COc1ccc(-c2nc3cnccn3c2Nc2ccccc2C)cc1`, the RP-LC retention time stood at 886 s. The value for `COc1ccc(-c2nc3cnccn3c2Nc2ccc(C(=O)NCCN3CCOCC3)cc2)cc1` was 584 s; that for `CN(C)S(=O)(=O)c1ccc(C(=O)Nc2nc(-c3ccc4c(c3)NC(=O)CO4)cs2)cc1` was 810 s; that for `Cc1ccc(CNC(=O)C2(C)CCCN(C(=O)Nc3ccc(Cl)cc3)C2)cc1` (centres undefined) was 1010 s.

On to `Cn1nnnc1SCCNCc1ccc2c(c1)OCCO2`, for which the RP-LC retention time is 577 s. For `CN(CCCNC(=O)C1CCCN(c2ccc(N3CCOCC3)nn2)C1)c1ccccc1` (centres undefined) the value was 570 s; for `COc1cc(OC)cc(C(=O)Nc2ccc3c(c2)Sc2ncccc2C(=O)N3C(C)C)c1`, 916 s; for `CN1CCN(Cc2nc(-c3ccc(N(C)Cc4ccccc4)nc3)no2)CC1`, 638 s. For `COc1ccc(NS(=O)(=O)c2ccc3c(c2)C(=O)N(C)c2ncccc2O3)cc1`, the RP-LC retention time was 844 s. The value for `COc1ccc(-c2ncc3c(n2)CCN(S(=O)(=O)c2ccc(F)c(Cl)c2)C3)cc1` was 1130 s.

`CCn1c(=O)c(N2CCCC(C(=O)N3CCN(c4cccc(Cl)c4)CC3)C2)nc2ccccc21` (centres undefined) yielded an RP-LC retention time of 1240 s. The value for `CCC(=O)N1CCC([C@H]2[C@@H](OC)C(=O)N2C(C)C)CC1` was 644 s; that for `COC(=O)c1c(NC(C)c2ccccc2)c2cccc(Cl)c2[nH]c1=O` (centres undefined) was 864 s.

In the case of `O=C(Nc1ccc(F)cc1F)C1CCN(C(=O)c2cccn2-c2cccnc2)CC1`, the RP-LC retention time stood at 696 s.

As to `Cc1nc(-c2csc(S(=O)(=O)N3CCC(C(=O)NCc4ccccn4)CC3)c2)no1`, the RP-LC retention time is 636 s. The value for `Cc1cc(NS(=O)(=O)c2cc(-c3[nH]ncc3C(=O)N3CCCC3)oc2C)ccc1F` was 730 s; that for `Clc1cccc(-c2nc(-c3ccc(-n4ccnc4)nc3)no2)c1` was 815 s. The value for `CCN1CCCc2cc(C(=O)NC3CCCCC3)sc21` was 1010 s. For `CN(C)c1ccc(Nc2nc(-c3ccc(Br)cc3)cs2)cc1` the value was 787 s; for `CSc1ccccc1NC(=O)c1ccc(COc2ccc(C)cc2)o1`, 1120 s. With `COc1ccc(OC)c(CNC(=O)CN2CCN(Cc3ccc(F)cc3)C2=O)c1`, the RP-LC retention time is 787 s. The value for `Cc1ccc2cc(CCC(=O)NCCCN3CCCCC3C)c(=O)[nH]c2c1` (centres undefined) was 590 s. The value for `CC1CN(C(=O)CCC(=O)NC2CCN(Cc3ccccc3)CC2)c2cc(Cl)ccc2O1` (centres undefined) was 694 s; that for `COc1ccc(S(=O)(=O)N2CCCC(Cn3cnc4cccnc43)C2)cc1OC` (centres undefined) was 773 s; that for `O=C1COc2ccccc2N1Cc1nc(-c2cccc(C(F)(F)F)c2)no1` was 1100 s.

Take `O=C(Nc1nc2ccc(F)cc2s1)c1ccccc1Br`: the RP-LC retention time was determined as 900 s. Turning to `Cc1nn2c(C)c(C(=O)OC(C)C)nnc2c1-c1ccc(F)cc1`, the RP-LC retention time came to 1060 s. The compound `O=C(Nc1ncn[nH]1)C1CCC1` registered an RP-LC retention time of 546 s. The value for `CC(C)C(=O)Nc1ccc(-n2cnc(C(=O)NC3CCCCCC3)c2)nc1` was 806 s; that for `Cc1noc(-c2nn(C)c3c2CN(C(=O)Nc2ccc(F)cc2)CC3)n1` was 723 s; that for `CCOC(=O)C1=C(CN2CCN(Cc3ccccc3)CC2)NC(=O)NC1c1cccc(OC)c1OC` (centres undefined) was 660 s. The value for `Fc1cccc(Cn2cc(-c3noc(-c4ccc5cc[nH]c5c4)n3)nn2)c1` was 996 s; that for `CC(C)NCCCn1c(Sc2cc3c(cc2I)OCO3)nc2c(N)ncnc21` was 592 s.
